Converted amounts (≈) assume the structure as drawn.
Columns and labels:
Micrococcus luteus = assay: Antibacterial activity against clinical isolate Micrococcus luteus assessed as reduction in microbial growth incubated for 24 hrs by broth microdilution method; format: functional
Staphylococcus aureus [1] = assay: Antibacterial activity against clinical isolate Staphylococcus aureus 4721 assessed as reduction in microbial growth incubated for 24 hrs by broth microdilution method; format: functional
Bacillus subtilis = assay: Antibacterial activity against Bacillus subtilis 168 assessed as reduction in microbial growth incubated for 24 hrs by broth microdilution method; format: functional
Staphylococcus aureus [2] = assay: Antibacterial activity against methicillin sensitive Staphylococcus aureus ATCC 29213 assessed as reduction in microbial growth incubated for 24 hrs by broth microdilution method; format: functional
[3] = test system: Staphylococcus epidermidis; assay: Antibacterial activity against clinical isolate Staphylococcus epidermidis assessed as reduction in microbial growth incubated for 24 hrs by broth microdilution method; format: functional
Pseudomonas aeruginosa [4] = assay: Antibacterial activity against Pseudomonas aeruginosa ATCC 27853 assessed as reduction in microbial growth incubated for 24 hrs by broth microdilution method; format: functional
Escherichia coli [5] = assay: Antibacterial activity against Escherichia coli ATCC 25922 assessed as reduction in microbial growth incubated for 24 hrs by broth microdilution method; format: functional
Salmonella typhimurium = assay: Antibacterial activity against Salmonella typhimurium TA100 assessed as reduction in microbial growth incubated for 24 hrs by broth microdilution method; format: functional, Salmonella enterica subsp. enterica serovar Typhimurium; settings: Salmonella enterica
[6] = test system: Staphylococcus auricularis; assay: Antibacterial activity against clinical isolate Staphylococcus auricularis NKC 7 assessed as reduction in microbial growth incubated for 24 hrs by broth microdilution method; format: functional
[7] = test system: Staphylococcus haemolyticus; assay: Antibacterial activity against clinical isolate Staphylococcus haemolyticus NKC 31/2 assessed as reduction in microbial growth incubated for 24 hrs by broth microdilution method; format: functional
[8] = test system: Staphylococcus epidermidis; assay: Antibacterial activity against clinical isolate Staphylococcus epidermidis NKC 37/1 assessed as reduction in microbial growth incubated for 24 hrs by broth microdilution method; format: functional
Staphylococcus aureus [9] = assay: Antibacterial activity against clinical isolate Staphylococcus aureus 1812 assessed as reduction in microbial growth incubated for 24 hrs by broth microdilution method; format: functional
Staphylococcus aureus [10] = assay: Antibacterial activity against clinical isolate methicillin resistant Staphylococcus aureus 4771 assessed as reduction in microbial growth incubated for 24 hrs by broth microdilution method; format: functional
[11] = test system: Staphylococcus haemolyticus; assay: Antibacterial activity against clinical isolate Staphylococcus haemolyticus 1464 assessed as reduction in microbial growth incubated for 24 hrs by broth microdilution method; format: functional
Enterococcus faecalis = assay: Antibacterial activity against clinical isolate Enterococcus faecalis 1465 assessed as reduction in microbial growth incubated for 24 hrs by broth microdilution method; format: functional
Escherichia coli [12] = assay: Antibacterial activity against clinical isolate Escherichia coli NKC 1 assessed as reduction in microbial growth incubated for 24 hrs by broth microdilution method; format: functional
Pseudomonas aeruginosa [13] = assay: Antibacterial activity against clinical isolate Pseudomonas aeruginosa NKC 17 assessed as reduction in microbial growth incubated for 24 hrs by broth microdilution method; format: functional
Cedecea davisae = assay: Antibacterial activity against clinical isolate Cedecea davisae 1813 assessed as reduction in microbial growth incubated for 24 hrs by broth microdilution method; format: functional
Klebsiella pneumoniae = assay: Antibacterial activity against clinical isolate Klebsiella pneumoniae 1678 assessed as reduction in microbial growth incubated for 24 hrs by broth microdilution method; format: functional
Klebsiella aerogenes = assay: Antibacterial activity against clinical isolate Enterobacter aerogenes NKC 8 assessed as reduction in microbial growth incubated for 24 hrs by broth microdilution method; format: functional
[14] = Cytotoxicity against human CHL assessed as reduction in cell viability incubated for 72 hrs by MTT assay; format: toxicity, cell-based; settings: CHL cells
[15] = Cytotoxicity against human HSF assessed as reduction in cell viability incubated for 72 hrs by MTT assay; format: toxicity, cell-based; settings: HSF cells
[16] = Cytotoxicity against human MSC assessed as reduction in cell viability incubated for 72 hrs by MTT assay; format: toxicity, cell-based; settings: MSC cells

Row | Structure (SMILES) | MIC (Micrococcus luteus) | MIC (Staphylococcus aureus [1]) | MIC (Bacillus subtilis) | MIC (Staphylococcus aureus [2]) | MIC [3] | MIC (Pseudomonas aeruginosa [4]) | MIC (Escherichia coli [5]) | MIC (Salmonella typhimurium) | MIC [6] | MIC [7] | MIC [8] | MIC (Staphylococcus aureus [9]) | MIC (Staphylococcus aureus [10]) | MIC [11] | MIC (Enterococcus faecalis) | MIC (Escherichia coli [12]) | MIC (Pseudomonas aeruginosa [13]) | MIC (Cedecea davisae) | MIC (Klebsiella pneumoniae) | MIC (Klebsiella aerogenes) | further results
1 | COc1c(N2C[C@@H]3CCCN(Cc4nc(C)c(O)c(CO)c4CO)[C@@H]3C2)c(F)cc2c(=O)c(C(=O)O)cn(C3CC3)c12.Cl | 2 µg/mL | 0.5 µg/mL | 2 µg/mL | 2 µg/mL | 2 µg/mL | > 64 µg/mL | > 64 µg/mL | 2 µg/mL | 0.03 µg/mL | 8 µg/mL | 0.25 µg/mL | 0.5 µg/mL | 0.25 µg/mL | 0.5 µg/mL | 4 µg/mL | 2 µg/mL | 32 µg/mL | 0.25 µg/mL | 64 µg/mL | 4 µg/mL | CC50 at 72 h [14]: 24.2 µg/mL; CC50 at 72 h [15]: 33.9 µg/mL; CC50 at 72 h [16]: 31.7 µg/mL
2 | CCn1cc(C(=O)O)c(=O)c2cc(F)c(N3CCNCC3)cc21 [NORFLOXACIN] | 8 µg/mL | 1 µg/mL | 1 µg/mL | 2 µg/mL | 1 µg/mL | 4 µg/mL | 1 µg/mL | 1 µg/mL | 0.13 µg/mL | 8 µg/mL | 4 µg/mL | 2 µg/mL | 1 µg/mL | 2 µg/mL | > 64 µg/mL | 0.06 µg/mL | 0.25 µg/mL | 1 µg/mL | 1 µg/mL | 1 µg/mL | CC50 at 72 h [14]: 38.1 µg/mL (≈ 119 µM); CC50 at 72 h [15]: 38.1 µg/mL (≈ 119 µM); CC50 at 72 h [16]: 29.3 µg/mL (≈ 91.9 µM)
3 | COc1c(N2C[C@@H]3CCCN(Cc4nc(C)c5c(c4CO)COC(C)(C)O5)[C@@H]3C2)c(F)cc2c(=O)c(C(=O)O)cn(C3CC3)c12 | 2 µg/mL | 1 µg/mL | 2 µg/mL | 2 µg/mL | 4 µg/mL | > 64 µg/mL | > 64 µg/mL | 2 µg/mL | 0.03 µg/mL | 32 µg/mL | 2 µg/mL | 2 µg/mL | 1 µg/mL | 1 µg/mL | 16 µg/mL | 8 µg/mL | > 64 µg/mL | 0.5 µg/mL | 64 µg/mL | 16 µg/mL | CC50 at 72 h [14]: 6.41 µg/mL (≈ 10.3 µM); CC50 at 72 h [15]: 11.3 µg/mL (≈ 18.1 µM); CC50 at 72 h [16]: 7.26 µg/mL (≈ 11.7 µM)
4 | Cc1ncc(CN2CCN(c3cc4c(cc3F)c(=O)c(C(=O)O)cn4C3CC3)CC2)c(C)c1O.Cl | 0.5 µg/mL | 0.5 µg/mL | 0.5 µg/mL | 0.5 µg/mL | 0.5 µg/mL | 32 µg/mL | 1 µg/mL | 1 µg/mL | 0.06 µg/mL | 16 µg/mL | 0.5 µg/mL | 1 µg/mL | 0.5 µg/mL | 0.5 µg/mL | 16 µg/mL | 0.13 µg/mL | 16 µg/mL | 0.5 µg/mL | 16 µg/mL | 1 µg/mL | CC50 at 72 h [14]: 14.2 µg/mL; CC50 at 72 h [15]: 27.6 µg/mL; CC50 at 72 h [16]: 25.1 µg/mL
5 | CCn1cc(C(=O)O)c(=O)c2cc(F)c(N3CCNC(C)C3)c(F)c21 (stereo not drawn) [LOMEFLOXACIN] | 1 µg/mL | 1 µg/mL | 0.5 µg/mL | 0.5 µg/mL | 2 µg/mL | 4 µg/mL | 1 µg/mL | 1 µg/mL | 0.06 µg/mL | 8 µg/mL | 2 µg/mL | 2 µg/mL | 1 µg/mL | 0.5 µg/mL | > 64 µg/mL | 0.06 µg/mL | 1 µg/mL | 0.25 µg/mL | 1 µg/mL | 1 µg/mL | CC50 at 72 h [14]: 31.3 µg/mL (≈ 89.1 µM); CC50 at 72 h [15]: 46.2 µg/mL (≈ 131 µM); CC50 at 72 h [16]: 35.7 µg/mL (≈ 102 µM)
6 | COc1c(N2C[C@@H]3CCCN(Cc4cnc(C)c5c4COCO5)[C@@H]3C2)c(F)cc2c(=O)c(C(=O)O)cn(C3CC3)c12.Cl | 8 µg/mL | 0.03 µg/mL | 2 µg/mL | 2 µg/mL | 16 µg/mL | 64 µg/mL | 2 µg/mL | 2 µg/mL | 0.03 µg/mL | 1 µg/mL | 0.03 µg/mL | 0.06 µg/mL | 0.03 µg/mL | 0.03 µg/mL | 1 µg/mL | 4 µg/mL | > 64 µg/mL | 0.03 µg/mL | > 64 µg/mL | > 64 µg/mL | CC50 at 72 h [14]: 2.34 µg/mL; CC50 at 72 h [15]: 5.8 µg/mL; CC50 at 72 h [16]: 9.62 µg/mL

Source: ChEMBL document CHEMBL5634112, “Synthesis and biological evaluation of fluoroquinolones containing a pyridoxine derivatives moiety” (Eur J Med Chem, 2023)
